Reference: patent US11459312B2, “Sulphur substituted 3-oxo-2,3-dihydropyridazine-4-carboxamides” (Bayer Aktiengesellschaft, priority 2017, dated 2022)

What follows are compounds tested against T1, AHR (Homo sapiens, UniProt P35869) (assay: In vitro assay 1: AHR-luc transactivation assay, antagonism in human cell line (U87 glioblastoma cells, kynurenic acid prestimulated)). Conditions: firefly luciferase DRE reporter, 150 μM kynurenic acid, 20 hours, read-out: Assay 1: AHR-luc Hum Antagonism IC50.
T1 sequence (P35869 11-848): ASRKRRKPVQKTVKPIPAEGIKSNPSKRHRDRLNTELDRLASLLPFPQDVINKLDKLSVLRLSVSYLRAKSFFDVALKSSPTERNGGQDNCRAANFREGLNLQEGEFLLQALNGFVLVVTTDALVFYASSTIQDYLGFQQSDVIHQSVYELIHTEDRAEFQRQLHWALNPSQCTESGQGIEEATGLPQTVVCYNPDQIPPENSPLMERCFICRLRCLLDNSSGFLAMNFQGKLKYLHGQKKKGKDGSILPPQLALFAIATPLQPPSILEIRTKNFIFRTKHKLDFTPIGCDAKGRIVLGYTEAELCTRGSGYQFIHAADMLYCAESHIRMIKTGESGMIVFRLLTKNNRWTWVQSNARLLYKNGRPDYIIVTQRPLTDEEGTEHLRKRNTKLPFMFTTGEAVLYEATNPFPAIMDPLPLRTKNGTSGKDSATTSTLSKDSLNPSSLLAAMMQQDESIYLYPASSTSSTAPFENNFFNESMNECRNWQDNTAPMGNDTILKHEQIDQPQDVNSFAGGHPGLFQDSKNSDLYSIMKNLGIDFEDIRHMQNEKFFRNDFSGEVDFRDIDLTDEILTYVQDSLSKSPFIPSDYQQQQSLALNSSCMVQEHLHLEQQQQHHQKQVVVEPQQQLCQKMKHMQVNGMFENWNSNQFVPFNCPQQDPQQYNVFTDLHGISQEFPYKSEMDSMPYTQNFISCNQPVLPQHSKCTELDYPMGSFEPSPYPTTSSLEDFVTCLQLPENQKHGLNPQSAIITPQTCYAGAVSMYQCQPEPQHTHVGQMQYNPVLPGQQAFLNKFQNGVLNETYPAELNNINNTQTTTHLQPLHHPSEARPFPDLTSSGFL
Type: cell-based
Design: U87 glioblastoma cells (ATCC) endogenously expressing AHR; host or cells: U87 glioblastoma cells, stably transfected with DRE-firefly luciferase and renilla reporter constructs only
Experimental: Transactivation Assay in Human Cell Line (In Vitro Assays 1 and 2)
Transactivation assays were carried out in U87 glioblastoma cells (ATCC) endogenously expressing AHR. In addition the cells were stably transfected with an AHR inducible firefly luciferase reporter gene construct that carried AHR-binding sites (DRE) in its promoter and a renilla reporter gene construct with constitutively active promoter. Kynurenic acid is an endogenous AHR activating ligand and was used to prestimulate test cells prior to testing the antagonistic properties of compounds.
In Vitro Assay 1: Antagonism in Human Cell Line
Cells in medium (tryptophan free RPMI, 1% FCS, 2 mM Glutamine) supplemented with 150 μM kynurenic acid were grown for 20 hours in absence (negative control) or presence of increasing concentrations of test compounds (typical dilutions: […], 0.25 nmol/L, 0.89 nmol/L; 3.1 nmol/L, 11 nmol/L, 38 nmol/L, 130 nmol/L, 470 nmol/L, 1.6 μmol/L, 5.7 μmol/L and 20 μmol/L in duplicates). As positive inhibition control cells supplemented with 150 μM kynurenic acid were incubated in presence of 5 μM Staurosporin. Normalization was done by positive and negative controls.
Firefly luciferase and Renilla activity was determined by the DualGlo Luciferase Assay System (Promega, #2920). Renilla activity was used to assess toxic effects of compounds.

Row | IC50 | SMILES
1 | 0.326 µM | CS(=O)(=O)CCNC(=O)c1cc(-c2ccc(Cl)cc2)nn(-c2cccc(F)c2)c1=O [Example 59, 6-(4-Chlorophenyl)-2-(3-fluorophenyl)-N-[2-(methylsulfonyl)ethyl]-3-oxo-2,3-dihydropyridazine-4-carboxamide]
2 | 0.0292 µM | O=C(N[C@@H]1CS(=O)(=O)C[C@@H]1O)c1cc(-c2ccc(C(F)(F)F)cc2)nn(-c2cccnc2)c1=O (relative stereo) [Example 16, N-[(cis)-4-hydroxy-1,1-dioxidotetrahydro-thiophen-3-yl]-3-oxo-2-(pyridin-3-yl)-6-[4-(trifluoromethyl)phenyl]-2,3-dihydropyridazine-4-carboxamide]
3 | 0.0803 µM | C[C@@H](CS(C)(=N)=O)NC(=O)c1cc(-c2ccc(C(F)(F)F)cc2)nn(-c2cnn(C)c2)c1=O (single isomer, unassigned) [Example 40]
4 | 0.133 µM | C[C@@H](CS(C)(=N)=O)NC(=O)c1cc(-c2ccc(C(F)(F)F)cc2)nn(-c2cnn(C)c2)c1=O (single isomer, unassigned) [Example 39]
5 | 0.147 µM | C[C@@H](CS(C)(=O)=O)NC(=O)c1cc(-c2ccc(Cl)cc2)nn(-c2cccc(F)c2)c1=O [Example 2, 6-(4-Chlorophenyl)-2-(3-fluorophenyl)-N-[(2S)-1-(methylsulfonyl)propan-2-yl]-3-oxo-2,3-dihydropyridazine-4-carboxamide]
6 | 0.158 µM | Cn1cc(-n2nc(-c3ccc(C(F)(F)F)cc3)cc(C(=O)N[C@@H]3CS(=N)(=O)C[C@@H]3O)c2=O)cn1 (stereo partly drawn) [Example 47, N-[(cis)-4-hydroxy-1-imino-1-oxidotetrahydro-1H-1lambda4-thiophen-3-yl]-2-(1-methyl-1H-pyrazol-4-yl)-3-oxo-6-[4-(trifluoromethyl)phenyl]-2,3-dihydropyridazine-4-carboxamide]
7 | 0.0162 µM | O=C(N[C@@H]1CS(=O)(=O)C[C@@H]1O)c1cc(-c2ccc(C(F)(F)F)cc2)nn(-c2cccnc2)c1=O (single isomer, unassigned) [Example 17, (+)-N-[(cis)-4-hydroxy-1,1-dioxidotetrahydro-thiophen-3-yl]-3-oxo-2-(pyridin-3-yl)-6-[4-(trifluoromethyl)phenyl]-2,3-dihydropyridazine-4-carboxamide]
8 | 0.393 µM | C[S+]([O-])CCNC(=O)c1cc(-c2ccc(Cl)cc2)nn(-c2cccc(F)c2)c1=O (stereo not shown) [Example 51, 6-(4-Chlorophenyl)-2-(3-fluorophenyl)-N-[2-(methylsulfinyl)ethyl]-3-oxo-2,3-dihydropyridazine-4-carboxamide]
9 | 0.00699 µM | CSC[C@H](C)NC(=O)c1cc(-c2ccc(C(F)(F)F)cc2)nn(-c2cnn(C)c2)c1=O [Example 9, 2-(1-Methyl-1H-pyrazol-4-yl)-N-[(2S)-1-(methylsulfanyl)propan-2-yl]-3-oxo-6-[4-(trifluoromethyl)phenyl]-2,3-dihydropyridazine-4-carboxamide]
10 | 0.00645 µM | O=C(N[C@@H]1CS(=O)(=O)C[C@@H]1O)c1cc(-c2ccc(C(F)(F)F)cc2)nn(-c2cccc(F)c2)c1=O (single isomer, unassigned) [Example 14, (+)-2-(3-fluorophenyl)-N-[(cis)-4-hydroxy-1,1-dioxidotetrahydro-thiophen-3-yl]-3-oxo-6-[4-(trifluoromethyl)phenyl]-2,3-dihydropyridazine-4-carboxamide]
11 | 0.00537 µM | C[C@@H](C[S+](C)[O-])NC(=O)c1cc(-c2ccc(C(F)(F)F)cc2)nn(-c2cnn(C)c2)c1=O (mixture of isomers) [Example 23, 2-(1-Methyl-1H-pyrazol-4-yl)-N-[(2S)-1-(methylsulfinyl)propan-2-yl]-3-oxo-6-[4-(trifluoromethyl)phenyl]-2,3-dihydropyridazine-4-carboxamide]
12 | 0.0392 µM | C[C@@H](CS(C)(=O)=NC(=O)C(F)(F)F)NC(=O)c1cc(-c2ccc(C(F)(F)F)cc2)nn(-c2cnn(C)c2)c1=O (stereo partly drawn) [Example 41, 2-(1-Methyl-1H-pyrazol-4-yl)-N-{(2S)-1-[S-methyl-N-(trifluoroacetyl)sulfonimidoyl]propan-2-yl}-3-oxo-6-[4-(trifluoromethyl)phenyl]-2,3-dihydropyridazine-4-carboxamide]
13 | 0.0134 µM | O=C(N[C@@H]1C[S+]([O-])C[C@@H]1O)c1cc(-c2ccc(Cl)cc2)nn(-c2cccc(F)c2)c1=O (single isomer, unassigned; (-)) [Example 28, (−)-6-(4-chlorophenyl)-2-(3-fluorophenyl)-N-[(cis)-4-hydroxy-1-oxidotetrahydro-thiophen-3-yl]-3-oxo-2,3-dihydropyridazine-4-carboxamide]
14 | 0.18 µM | C[C@@H](C[S+](C)[O-])NC(=O)c1cc(-c2ccc(Cl)cc2)nn(-c2cccc(F)c2)c1=O (single isomer, unassigned) [Example 5]
15 | 0.145 µM | O=C(N[C@@H]1CCS(=O)(=O)C1)c1cc(-c2ccc(Cl)cc2)nn(-c2cccc(F)c2)c1=O (stereo in doubt) [Example 58, 6-(4-Chlorophenyl)-N-(1,1-dioxidotetrahydrothiophen-3-yl)-2-(3-fluorophenyl)-3-oxo-2,3-dihydropyridazine-4-carboxamide]
16 | 0.15 µM | O=C(N[C@@H]1C[S+]([O-])C[C@@H]1O)c1cc(-c2ccc(C(F)(F)F)cc2)nn(-c2cccnc2)c1=O (single isomer, unassigned) [Example 37, N-[(cis)-4-hydroxy-1-oxidotetrahydro-thiophen-3-yl]-3-oxo-2-(pyridin-3-yl)-6-[4-(trifluoromethyl)phenyl]-2,3-dihydropyridazine-4-carboxamide]
17 | 0.295 µM | O=C(N[C@@H]1C[S+]([O-])C[C@@H]1O)c1cc(-c2ccc(C(F)(F)F)cc2)nn(-c2cccnc2)c1=O (single isomer, unassigned) [Example 36, N-[(cis)-4-hydroxy-1-oxidotetrahydro-thiophen-3-yl]-3-oxo-2-(pyridin-3-yl)-6-[4-(trifluoromethyl)phenyl]-2,3-dihydropyridazine-4-carboxamide]
18 | 0.232 µM | C[C@@H](CS(C)(=N)=O)NC(=O)c1cc(-c2ccc(Cl)cc2)nn(-c2cccc(F)c2)c1=O (mixture of isomers) [Example 6, 6-(4-Chlorophenyl)-2-(3-fluorophenyl)-N-[(2S)-1-(S-methylsulfonimidoyl)propan-2-yl]-3-oxo-2,3-di hydropyridazine-4-carboxamide]
19 | 0.0548 µM | C[C@@H](CS(C)(=N)=O)NC(=O)c1cc(-c2ccc(C(F)(F)F)cc2)nn(-c2cnn(C)c2)c1=O (mixture of isomers) [Example 38, 2-(1-Methyl-1H-pyrazol-4-yl)-N-[(2S)-1-(S-methylsulfonimidoyl)propan-2-yl]-3-oxo-6-[4-(trifluoromethyl)phenyl]-2,3-dihydropyridazine-4-carboxamide]
